Source: patent publication US12630498B2 (Genzyme Corporation, priority 2019, dated 2026)

Assays:
[1] = biological target: T1, human Cystic Fibrosis Transmembrane Conductance Regulator (CFTR) harboring the ΔF508 mutation (Homo sapiens, UniProt P13569, DEL508-508); experiment: H441 cell ΔF508-CFTR-HRP cell surface assay (Emax and EC50); type: cell-based; conditions: for Emax: NCI-H441, NA = Not active
T1 construct: expressed in transfected cells; host or cells: H441 carcinoma line (G418-selected)
T1 sequence (P13569 with tags, fused parts or gaps DEL508-508): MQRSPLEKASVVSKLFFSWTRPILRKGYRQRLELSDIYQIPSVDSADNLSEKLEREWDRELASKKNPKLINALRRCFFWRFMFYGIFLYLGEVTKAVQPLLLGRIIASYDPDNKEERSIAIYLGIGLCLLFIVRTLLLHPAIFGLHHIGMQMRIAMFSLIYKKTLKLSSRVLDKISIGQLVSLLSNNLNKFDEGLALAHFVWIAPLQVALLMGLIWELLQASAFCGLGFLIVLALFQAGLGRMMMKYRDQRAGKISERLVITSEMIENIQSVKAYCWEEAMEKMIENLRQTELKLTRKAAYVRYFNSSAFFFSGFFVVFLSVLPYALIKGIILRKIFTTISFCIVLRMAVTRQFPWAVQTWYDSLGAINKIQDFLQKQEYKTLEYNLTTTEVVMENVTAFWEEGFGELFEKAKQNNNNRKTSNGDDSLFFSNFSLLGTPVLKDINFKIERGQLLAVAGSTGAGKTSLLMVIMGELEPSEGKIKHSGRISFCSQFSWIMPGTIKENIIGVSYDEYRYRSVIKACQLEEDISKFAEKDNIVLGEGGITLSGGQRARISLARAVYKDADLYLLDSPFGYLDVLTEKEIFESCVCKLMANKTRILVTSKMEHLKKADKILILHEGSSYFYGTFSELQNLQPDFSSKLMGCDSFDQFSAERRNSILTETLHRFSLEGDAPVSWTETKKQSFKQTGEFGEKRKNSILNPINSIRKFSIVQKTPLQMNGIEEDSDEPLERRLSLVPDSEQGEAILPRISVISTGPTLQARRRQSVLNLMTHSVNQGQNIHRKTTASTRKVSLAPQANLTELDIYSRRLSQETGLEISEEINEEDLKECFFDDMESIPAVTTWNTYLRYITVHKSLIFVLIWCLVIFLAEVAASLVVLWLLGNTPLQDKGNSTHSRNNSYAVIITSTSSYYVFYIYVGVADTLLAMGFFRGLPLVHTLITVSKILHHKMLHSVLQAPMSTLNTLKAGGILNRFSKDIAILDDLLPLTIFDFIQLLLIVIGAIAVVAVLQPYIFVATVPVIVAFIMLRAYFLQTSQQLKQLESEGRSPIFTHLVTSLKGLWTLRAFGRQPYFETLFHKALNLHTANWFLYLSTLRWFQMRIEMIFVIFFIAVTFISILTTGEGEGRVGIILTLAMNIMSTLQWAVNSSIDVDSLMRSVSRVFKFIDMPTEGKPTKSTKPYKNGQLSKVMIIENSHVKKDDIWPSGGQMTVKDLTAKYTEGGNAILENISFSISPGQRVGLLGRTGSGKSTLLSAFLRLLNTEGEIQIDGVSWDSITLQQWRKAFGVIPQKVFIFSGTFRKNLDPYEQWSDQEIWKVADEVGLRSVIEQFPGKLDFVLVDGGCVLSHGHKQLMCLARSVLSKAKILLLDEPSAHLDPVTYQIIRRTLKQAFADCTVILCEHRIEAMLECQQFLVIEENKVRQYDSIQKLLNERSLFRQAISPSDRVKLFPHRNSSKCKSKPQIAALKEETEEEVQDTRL
In short: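 H441 and 41o- bronchial epithelial cells expressing ΔF508-CFTR with an extracellular-loop-4 HRP tag were treated with a 15-point compound series (24.5–0.001 μM) for two nights, H441 at 27° C, 41o- at 37° C with 0.0005 mg/ml doxycycline. Surface HRP luminescence read; % of maximum VX809 signal and EC50 derived.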

[2] = biological target: T2, CFTR-mediated transepithelial chloride transport in primary human bronchial epithelial cells from a ΔF508 homozygous CF donor (Homo sapiens, UniProt P13569, DEL508-508); experiment: TECC24 recording of CFTR-mediated transepithelial chloride transport in CF-HBE cells (AUC fold over DMSO); type: cell-based; conditions: test agent 10 μM, 48 hours incubation, AUC of forskolin-stimulated IEQ relative to DMSO
T2 construct: Primary human bronchial epithelial cells from a ΔF508 homozygous CF donor; host or cells: primary CF-HBE cells, ΔF508 homozygous donor
T2 sequence (P13569 with tags, fused parts or gaps DEL508-508): as above
Method: Example 316: TECC24 AUC Fold Over DMSO @ 10 uM
The effects of a test agent on CFTR-mediated transepithelial chloride transport was measured using TECC24 recording analysis. Test agents were solubilized in DMSO. Solubilized test agents were mixed with incubation medium containing DMEM/F12, Ultroser G (2%; Crescent Chemical, catalog #67042), Hyclone Fetal Clone II (2%; GE Healthcare, catalog #SH30066.02), bovine brain extract (0.25%; Lonza, catalog #CC-4098), insulin (2.5 μg/mL), IL-13 (10 ng/mL), hydrocortisone (20 nM), transferrin (2.5 μg/mL), triiodothyronine (500 nM), ethanolamine (250 nM), epinephrine (1.5 μM), phosphoethanolamine (250 nM), and retinoic acid (10 nM). Primary human bronchial epithelial cells from a ΔF508 homozygous CF donor (CF-HBE cells; from University of North Carolina Cystic Fibrosis Tissue Procurement Center), grown on Transwell HTS 24-well cell culture inserts (Costar, catalog #3378), were exposed to test agents or controls dissolved in incubation medium. The CF-HBE cells were cultured at 36.5° C. for 48 hours before TECC24 recordings were performed in the presence or absence of test agent, a positive control or vehicle (DMSO).
Following incubation, the transwell cell culture inserts containing the test agent or control-treated CF-HBE cells were loaded onto a TECC24 apparatus (TECC v7 or MTECC v2; EP Design) to record the transepithelial voltage (VT) and resistance (TEER) using 4 AgCl electrodes per well configured in current-clamp mode. The apical and basolateral bath solutions both contained (in mM) 140 NaCl, 5 KCl, 2 CaCl2), 1 MgCl2, 10 Hepes, and 10 glucose (adjusted to pH 7.4 with NaOH). To inhibit basal Na+ absorption, the ENaC inhibitor benzamil (10 μM) was added to the bath. Then, the adenylate cyclase activator, forskolin (10 μM), was added to the bath to activate CFTR. The forskolin-stimulated Cl-transport was halted by addition of CFTR inhibitor-172 (20 μM) to the bath at the end of the experiment to confirm specificity. VT and TEER recordings were digitally acquired at routine intervals using TECC or MTECC software (EP Design). VT and TEER were transformed into equivalent transepithelial Cl-current (IEQ), and the Area Under the Curve (AUC) of the IEQ time course between forskolin and CFTR inhibitor-172 addition was generated using Excel (Microsoft). Efficacy is expressed as the ratio of the test agent AUC divided by vehicle AUC. EC50s based on AUC are generated using the non-linear regression log(agonist) vs. response function in Prism software (GraphPad) with Hill Slope fixed=1.
If a test agent increased the AUC of the forskolin-stimulated IEQ relative to vehicle in CF-HBE cells, and this increase was inhibited by CFTR inhibitor-172, then the test agent was considered a CFTR corrector.

Compound	EC50 [1]	Emax [1]	TECC24 AUC fold over DMSO @10 μM [2]
Cc1ccc2ccc(C(=O)N[C@H](C(=O)O)C(C)(C)CF)c(OCC3CCCCC3)c2c1 [Example 282, (S)-2-(1-(cyclohexylmethoxy)-7-methyl-2-naphthamido)-4-fluoro-3,3-dimethylbutanoic Acid]	700 nM	285%	A (“A” refers to AUC @10 uM >6)
CC(c1ccccc1)C(NC(=O)c1ccc2ccccc2c1OCc1ccc(C(F)(F)F)cc1)C(=O)O (stereo not drawn) [Example 127, 3-phenyl-2-(1-((4-(trifluoromethyl)benzyl)oxy)-2-naphthamido)butanoic Acid]	1100 nM	98.5%	C (“C” refers to AUC @10 uM <4)
CC1([C@H](NC(=O)c2ccc3ccc(Cl)cc3c2OCc2ccc(C(F)(F)F)cc2)C(=O)O)CCCC1 [Example 302, (S)-2-(7-chloro-1-((4-(trifluoromethyl)benzyl)oxy)-2-naphthamido)-2-(1-methylcyclopentyl)acetic Acid]	100 nM	248%	A (“A” refers to AUC @10 uM >6)
CC(C)(C)[C@H](NC(=O)c1ccc2ccc(-c3cscn3)cc2c1OCc1ccc(OC(F)(F)F)cc1)C(=O)O [Example 252, (2S)-3,3-dimethyl-2-[[7-thiazol-4-yl-1-[[4-(trifluoromethoxy)phenyl]methoxy]naphthalene-2-carbonyl]amino]butanoic Acid]	600 nM	110%	A (“A” refers to AUC @10 uM >6)
CC1(C(NC(=O)c2ccc3ccccc3c2OCc2ccc(S(=O)(=O)C(F)(F)F)cc2)C(=O)O)CCCCC1 (stereo not drawn) [Example 77, 2-(1-methylcyclohexyl)-2-(1-((4-((trifluoromethyl)sulfonyl)benzyl)oxy)-2-naphthamido)acetic Acid]	700 nM	78.9%	C (“C” refers to AUC @10 uM <4)
O=C(N[C@H](C(=O)O)C(c1ccccc1)c1ccccc1)c1ccc2cc(F)ccc2c1OCc1nc2ccccc2s1 [Example 216, (S)-2-(1-(benzo[d]thiazol-2-ylmethoxy)-6-fluoro-2-naphthamido)-3,3-diphenylpropanoic Acid]	900 nM	115%	C (“C” refers to AUC @10 uM <4)
CC(C)(C)[C@H](NC(=O)c1ccc2ccccc2c1OCc1ccc(C(F)(F)C(F)(F)F)cc1)C(=O)O [Example 37, (S)-3,3-dimethyl-2-(1-((4-(perfluoroethyl)benzyl)oxy)-2-naphthamido)butanoic Acid]	300 nM	195%	C (“C” refers to AUC @10 uM <4)
CC(C)(C)C[C@H](NC(=O)c1ccc2cc(F)ccc2c1OCc1nc2ccccc2s1)C(=O)O [Example 218, (S)-2-(1-(benzo[d]thiazol-2-ylmethoxy)-6-fluoro-2-naphthamido)-4,4-dimethylpentanoic Acid]	4800 nM	86.8%	C (“C” refers to AUC @10 uM <4)
CC(C)(SC1CCCC1)[C@H](NC(=O)c1ccc2ccccc2c1OCc1ccc(SC(F)(F)F)cc1)C(=O)O [Example 169, (R)-3-(cyclopentylthio)-3-methyl-2-(1-((4-((trifluoromethyl)thio)benzyl)oxy)-2-naphthamido)butanoic Acid]	400 nM	138%	B (“B” refers to AUC @10 uM between 4-6)
C[C@@H](OC(C)(C)C)C(NC(=O)c1ccc2ccccc2c1OCc1ccc(C(F)(F)F)cc1)C(=O)O (stereo partly drawn) [Example 133, (3R)-3-(tert-butoxy)-2-(1-((4-(trifluoromethyl)benzyl)oxy)-2-naphthamido)butanoic Acid]	1200 nM	151%	A (“A” refers to AUC @10 uM >6)
O=C(N[C@@H](Cc1ccc(C(F)(F)F)cc1)C(=O)O)c1ccc2ccccc2c1OCc1ccc(C(F)(F)F)cc1 [Example 104, (S)-2-(1-((4-(trifluoromethyl)benzyl)oxy)-2-naphthamido)-3-(4-(trifluoromethyl)phenyl)propanoic Acid]	7700 nM	77.8%	C (“C” refers to AUC @10 uM <4)
CC1(C(NC(=O)c2ccc3ccccc3c2OCc2ccc(SC(F)(F)F)cc2)C(=O)O)CCCCC1 (stereo not drawn) [Example 36, 2-(1-methylcyclohexyl)-2-(1-((4-((trifluoromethyl)thio)benzyl)oxy)-2-naphthamido)acetic Acid]	700 nM	133%	B (“B” refers to AUC @10 uM between 4-6)
CCCC(C)(CC)[C@H](NC(=O)c1ccc2ccc(Cl)cc2c1OCc1ccc(C(F)(F)F)cc1)C(=O)O (stereo partly drawn) [Example 255, (2S)-2-[[7-chloro-1-[[4-(trifluoromethyl)phenyl]methoxy]naphthalene-2-carbonyl]amino]-3-ethyl-3-methyl-hexanoic Acid]	100 nM	324%	A (“A” refers to AUC @10 uM >6)

Other lines, results leading:

EC50 [1]	Emax [1]	TECC24 AUC fold over DMSO @10 μM [2]	Compound
400 nM	242%	A (“A” refers to AUC @10 uM >6)	CCC(C)(C)[C@H](NC(=O)c1ccc2ccccc2c1OCc1ccc(C(F)(F)F)cc1)C(=O)O [Example 78, (S)-3,3-dimethyl-2-(1-((4-(trifluoromethyl)benzyl)oxy)-2-naphthamido)pentanoic Acid]
100 nM	229%	A (“A” refers to AUC @10 uM >6)	CCC(C)(C)[C@H](NC(=O)c1ccc2ccc(C(F)(F)F)cc2c1OCc1ccc(C(F)(F)F)cc1)C(=O)O [Example 295, (S)-3,3-dimethyl-2-(7-(trifluoromethyl)-1-((4-(trifluoromethyl)benzyl)oxy)-2-naphthamido)pentanoic Acid]
1100 nM	132%	A (“A” refers to AUC @10 uM >6)	CC(C)(C)[C@@H](NC(=O)c1ccc2ccc(Cl)cc2c1OCc1ccc(C(F)(F)F)cc1)C(=O)O [Example 262, (2R)-2-[[7-chloro-1-[[4-(trifluoromethyl)phenyl]methoxy]naphthalene-2-carbonyl]amino]-3,3-dimethyl-butanoic Acid]
12200 nM	156%	A (“A” refers to AUC @10 uM >6)	Cc1ccc2c(OCc3ccc(C(F)(F)F)cc3)c(C(=O)N[C@H](C(=O)O)C(C)(C)C)ccc2c1 [Example 233, (2S)-3,3-dimethyl-2-[[6-methyl-1-[[4-(trifluoromethyl)phenyl]methoxy]naphthalene-2-carbonyl]amino]butanoic Acid]
100 nM	353%	A (“A” refers to AUC @10 uM >6)	CC(C)(C)[C@H](NC(=O)c1ccc2ccc(Cl)cc2c1OCc1ccc(C(F)(F)F)cc1)C(=O)O [Example 286, (S)-2-(7-chloro-1-((4-(trifluoromethyl)benzyl)oxy)-2-naphthamido)-3,3-dimethylbutanoic Acid]
1500 nM	206%	A (“A” refers to AUC @10 uM >6)	CC(C)(C)[C@H](NC(=O)c1ccc2ccc(C#N)cc2c1OCc1ccc(C(F)(F)F)cc1)C(=O)O [Example 248, (2S)-2-[[7-cyano-1-[[4-(trifluoromethyl)phenyl]methoxy]naphthalene-2-carbonyl]amino]-3,3-dimethyl-butanoic Acid]
100 nM	224%	A (“A” refers to AUC @10 uM >6)	CC(C)(C)[C@H](NC(=O)c1ccc2ccc(Br)cc2c1OCc1ccc(OC(F)(F)F)cc1)C(=O)O [Example 247, (2S)-2-[[7-bromo-1-[[4-(trifluoromethoxy)phenyl]methoxy]naphthalene-2-carbonyl]amino]-3,3-dimethyl-butanoic Acid]
